Assays:
SR = assay: Tumor cell proliferation inhibition (CellTiter-Meiluncell Luminescent Cell Viability Assay), SR; conditions: Homo sapiens, 96 h, read-out: inhibitory activity (IC50, nM) against tumor cells proliferation, SR
CAL-62 = assay: Tumor cell proliferation inhibition (CellTiter-Meiluncell Luminescent Cell Viability Assay), CAL-62; conditions: Homo sapiens, CAL-62, 96 h, read-out: inhibitory activity (IC50, nM) against tumor cells proliferation, CAL-62
[1] = biological target: T1, human Cereblon WT GST-tagged protein (Homo sapiens, UniProt Q96SW2); assay: CRBN-binding affinity by HTRF (CEREBLON BINDING kit); conditions: HTRF inhibitory activity, CEREBLON BINDING kit; read-out: HTRF IC50
T1 construct: purchased CISBIO 64BDCRBNPEH

CK1α = biological target: T2, CK1α (Homo sapiens, UniProt P48729+Q96SW2); assay: Western-blot assay of substrate protein degradation in hPBMCs, CK1α; type: cell-based; conditions: 24 hours of compound treatment, compounds tested at 50 nM and 500 nM (concentration of the table not stated)
T2 construct: endogenous in cells; host or cells: hPBMCs (Milecell Biotechnologies)

NCI-H1975 = assay: Tumor cell proliferation inhibition (CellTiter-Meiluncell Luminescent Cell Viability Assay), NCI-H1975; conditions: Homo sapiens, NCI-H1975, 96 h, read-out: inhibitory activity (IC50, nM) against tumor cells proliferation, H1975
MGC803 = assay: Tumor cell proliferation inhibition (CellTiter-Meiluncell Luminescent Cell Viability Assay), MGC803; conditions: Homo sapiens, MGC-803, 96 h, read-out: inhibitory activity (IC50, nM) against tumor cells proliferation, MGC803
Protocol: (§1) The tumor cells used herein were cultured in a cell culture medium listed in table 2 at 37°C in an incubator with 5% CO2. Prior to experimentation, all cell lines used were correctly identified by STR profiling, and tested negative for mycoplasma contamination using a mycoplasma detection kit through routine screenings.
On the following day, the test compounds of the present disclosure were subjected to serial dilution. […] Subsequently, 0.5 µL of the test compound dilution was transferred into the 96-well plate containing the cells, with each well containing 100 µL of cell culture medium. […] Into the 96-well plate, the diluted test compounds and corresponding detection reagents were added, resulting in final test compound concentrations of 500 nM and 10 nM, respectively.
(§2) After the cells were treated with the compounds of the present disclosure for a specified period (the treatment durations were shown in Table 3), the cell viability assay reagent was added to the culture medium according to the kit's instructions to determine cell viability. […] All controls were treated using the same procedure as the compounds of the present disclosure. The growth inhibition curves for the compounds of the present disclosure were plotted using Prism GraphPad software, and the IC50 values were calculated therefrom.

Jurkat = assay: Tumor cell proliferation inhibition (CellTiter-Meiluncell Luminescent Cell Viability Assay), Jurkat; conditions: Homo sapiens, 96 h, read-out: inhibitory activity (IC50, nM) against tumor cells proliferation, Jurkat
Protocol: as §1
(§3) On the following day, the test compounds of the present disclosure were subjected to serial dilution. […] Subsequently, 0.5 µL of the test compound dilution was transferred into the 96-well plate containing the cells, with each well containing 100 µL of cell culture medium. […] Into the 96-well plate, the diluted test compounds and corresponding detection reagents were added, resulting in final test compound concentrations of 500 nM and 10 nM, respectively. The experimental procedure is described below using the diluted 2 µM test compound as an example.
as §2

IKZF2 = biological target: T3, IKZF2 (Homo sapiens, UniProt Q96SW2+Q9UKS7); assay: Western-blot assay of substrate protein degradation in hPBMCs, IKZF2; type: cell-based; conditions: 24 hours of compound treatment, compounds tested at 50 nM and 500 nM (concentration of the table not stated)
T3 construct: endogenous in cells; host or cells: hPBMCs (Milecell Biotechnologies)

GSPT1 = biological target: T4, GSPT1 (Homo sapiens, UniProt P15170+Q96SW2); assay: Western-blot assay of substrate protein degradation in hPBMCs, GSPT1; type: cell-based; conditions: 24 hours of compound treatment, compounds tested at 50 nM and 500 nM (concentration of the table not stated)
T4 construct: endogenous in cells; host or cells: hPBMCs (Milecell Biotechnologies)

[2] = system: Human breast cancer cells (MDA-MB-231); assay: Tumor cell proliferation inhibition (CellTiter-Meiluncell Luminescent Cell Viability Assay), MDA-MB-231; conditions: MDA-MB-231, 96 h, read-out: inhibitory activity (IC50, nM) against tumor cells proliferation, MDA-MB-231
IKZF1 = biological target: T5, IKZF1 (Homo sapiens, UniProt Q13422+Q96SW2); assay: Western-blot assay of substrate protein degradation in hPBMCs, IKZF1; type: cell-based; conditions: 24 hours of compound treatment, compounds tested at 50 nM and 500 nM (concentration of the table not stated)
T5 construct: endogenous in cells; host or cells: hPBMCs (Milecell Biotechnologies)

CCRF-CEM = assay: Tumor cell proliferation inhibition (CellTiter-Meiluncell Luminescent Cell Viability Assay), CCRF-CEM; conditions: Homo sapiens, 96 h, read-out: inhibitory activity (IC50, nM) against tumor cells proliferation, CCRF-CEM
Vcap = assay: Tumor cell proliferation inhibition (CellTiter-Meiluncell Luminescent Cell Viability Assay), Vcap; conditions: Homo sapiens, 96 h, read-out: inhibitory activity (IC50, nM) against tumor cells proliferation, Vcap
SW620 = assay: Tumor cell proliferation inhibition (CellTiter-Meiluncell Luminescent Cell Viability Assay), SW620; conditions: Homo sapiens, SW-620, 96 h, read-out: inhibitory activity (IC50, nM) against tumor cells proliferation, SW620
Protocol: as §1, §3, §2

IKZF3 = biological target: T6, IKZF3 (Homo sapiens, UniProt Q96SW2+Q9UKT9); assay: Western-blot assay of substrate protein degradation in hPBMCs, IKZF3; type: cell-based; conditions: 24 hours of compound treatment, compounds tested at 50 nM and 500 nM (concentration of the table not stated)
T6 construct: endogenous in cells; host or cells: hPBMCs (Milecell Biotechnologies)

MM.1R = assay: Tumor cell proliferation inhibition (CellTiter-Meiluncell Luminescent Cell Viability Assay), MM.1R; conditions: Homo sapiens, 96 h, read-out: inhibitory activity (IC50, nM) against tumor cells proliferation, MM.1R
[3] = system: Human acute T lymphocytic leukemia cells (Molt-4); assay: Tumor cell proliferation inhibition (CellTiter-Meiluncell Luminescent Cell Viability Assay), Molt-4; conditions: MOLT-4, 96 h, read-out: inhibitory activity (IC50, nM) against tumor cells proliferation, Molt 4
Protocol: as §1, §3, §2

WEE1 = biological target: T7, WEE1 (Homo sapiens, UniProt P30291+Q96SW2); assay: Western-blot assay of substrate protein degradation in hPBMCs, WEE1; type: cell-based; conditions: 24 hours of compound treatment, compounds tested at 50 nM and 500 nM (concentration of the table not stated)
T7 construct: endogenous in cells; host or cells: hPBMCs (Milecell Biotechnologies)
T7 sequence (P30291 whole entry): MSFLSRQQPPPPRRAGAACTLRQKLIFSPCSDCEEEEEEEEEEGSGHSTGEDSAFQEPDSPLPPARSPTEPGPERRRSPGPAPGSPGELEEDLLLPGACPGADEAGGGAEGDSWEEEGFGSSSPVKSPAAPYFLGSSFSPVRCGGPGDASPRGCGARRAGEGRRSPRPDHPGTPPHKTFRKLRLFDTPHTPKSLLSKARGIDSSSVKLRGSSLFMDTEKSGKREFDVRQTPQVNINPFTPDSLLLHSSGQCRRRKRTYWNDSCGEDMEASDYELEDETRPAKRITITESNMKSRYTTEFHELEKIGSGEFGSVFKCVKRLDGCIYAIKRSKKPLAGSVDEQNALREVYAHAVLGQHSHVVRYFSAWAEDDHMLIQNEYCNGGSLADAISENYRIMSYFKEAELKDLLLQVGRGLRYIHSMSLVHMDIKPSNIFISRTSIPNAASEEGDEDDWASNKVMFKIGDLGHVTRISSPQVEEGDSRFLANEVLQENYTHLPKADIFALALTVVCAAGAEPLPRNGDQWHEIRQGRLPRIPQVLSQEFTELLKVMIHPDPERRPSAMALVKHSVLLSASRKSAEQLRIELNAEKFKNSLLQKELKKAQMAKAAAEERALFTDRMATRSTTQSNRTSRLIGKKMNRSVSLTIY
T7 sequence (Q96SW2 whole entry): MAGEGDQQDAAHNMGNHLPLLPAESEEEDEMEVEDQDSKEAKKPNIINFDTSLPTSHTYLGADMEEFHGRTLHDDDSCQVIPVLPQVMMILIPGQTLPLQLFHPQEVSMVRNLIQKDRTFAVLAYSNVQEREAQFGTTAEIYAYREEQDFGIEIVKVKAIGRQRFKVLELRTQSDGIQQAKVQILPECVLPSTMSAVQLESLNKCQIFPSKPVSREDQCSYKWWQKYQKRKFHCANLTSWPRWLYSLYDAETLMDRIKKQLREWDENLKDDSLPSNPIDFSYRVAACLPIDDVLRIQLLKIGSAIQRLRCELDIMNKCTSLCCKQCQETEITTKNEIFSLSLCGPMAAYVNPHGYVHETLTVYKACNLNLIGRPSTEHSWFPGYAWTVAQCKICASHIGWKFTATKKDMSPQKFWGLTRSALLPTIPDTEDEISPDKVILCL
T7 sequence (Q16531 whole entry partner): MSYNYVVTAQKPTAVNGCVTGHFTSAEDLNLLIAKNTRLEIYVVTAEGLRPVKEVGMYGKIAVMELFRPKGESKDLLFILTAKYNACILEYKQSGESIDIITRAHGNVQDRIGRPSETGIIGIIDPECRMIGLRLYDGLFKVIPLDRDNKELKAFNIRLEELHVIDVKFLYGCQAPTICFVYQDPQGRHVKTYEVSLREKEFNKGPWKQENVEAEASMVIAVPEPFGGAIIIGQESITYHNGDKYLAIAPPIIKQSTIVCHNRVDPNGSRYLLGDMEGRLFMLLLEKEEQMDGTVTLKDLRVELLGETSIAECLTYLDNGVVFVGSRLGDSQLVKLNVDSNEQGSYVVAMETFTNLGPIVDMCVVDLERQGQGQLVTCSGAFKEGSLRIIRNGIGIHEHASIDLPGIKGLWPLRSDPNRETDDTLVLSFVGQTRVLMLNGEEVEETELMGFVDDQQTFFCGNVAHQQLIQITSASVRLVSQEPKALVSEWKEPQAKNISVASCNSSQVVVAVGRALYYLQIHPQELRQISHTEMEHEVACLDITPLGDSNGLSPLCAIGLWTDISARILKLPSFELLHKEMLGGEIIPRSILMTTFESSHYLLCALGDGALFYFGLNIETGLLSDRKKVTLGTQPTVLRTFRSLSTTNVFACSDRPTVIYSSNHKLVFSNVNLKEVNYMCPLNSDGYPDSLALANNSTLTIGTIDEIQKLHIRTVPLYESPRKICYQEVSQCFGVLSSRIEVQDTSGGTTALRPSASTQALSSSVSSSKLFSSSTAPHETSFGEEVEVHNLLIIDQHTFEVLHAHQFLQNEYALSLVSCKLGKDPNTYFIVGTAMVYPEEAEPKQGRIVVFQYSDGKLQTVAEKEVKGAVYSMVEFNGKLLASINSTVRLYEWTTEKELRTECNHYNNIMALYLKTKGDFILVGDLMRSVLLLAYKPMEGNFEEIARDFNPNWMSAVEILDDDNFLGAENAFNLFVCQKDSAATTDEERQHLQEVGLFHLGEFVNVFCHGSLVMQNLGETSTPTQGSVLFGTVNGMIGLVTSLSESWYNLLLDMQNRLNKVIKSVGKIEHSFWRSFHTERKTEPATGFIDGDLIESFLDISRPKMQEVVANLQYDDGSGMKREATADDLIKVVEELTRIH

T2 sequence (P48729 whole entry): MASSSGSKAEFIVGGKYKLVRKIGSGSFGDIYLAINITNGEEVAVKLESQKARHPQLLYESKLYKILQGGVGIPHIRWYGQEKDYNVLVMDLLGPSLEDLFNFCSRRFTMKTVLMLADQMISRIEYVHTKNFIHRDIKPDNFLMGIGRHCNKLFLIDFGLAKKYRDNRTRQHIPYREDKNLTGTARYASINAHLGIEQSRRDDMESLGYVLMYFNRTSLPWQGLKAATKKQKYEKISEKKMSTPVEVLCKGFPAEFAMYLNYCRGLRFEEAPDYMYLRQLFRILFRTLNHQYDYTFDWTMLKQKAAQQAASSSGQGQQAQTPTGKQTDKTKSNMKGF
T2 sequence (Q96SW2 whole entry): as the sequence (Q96SW2 whole entry) above
T2 sequence (Q16531 whole entry partner): as the sequence (Q16531 whole entry partner) above
T3 sequence (Q9UKS7 whole entry): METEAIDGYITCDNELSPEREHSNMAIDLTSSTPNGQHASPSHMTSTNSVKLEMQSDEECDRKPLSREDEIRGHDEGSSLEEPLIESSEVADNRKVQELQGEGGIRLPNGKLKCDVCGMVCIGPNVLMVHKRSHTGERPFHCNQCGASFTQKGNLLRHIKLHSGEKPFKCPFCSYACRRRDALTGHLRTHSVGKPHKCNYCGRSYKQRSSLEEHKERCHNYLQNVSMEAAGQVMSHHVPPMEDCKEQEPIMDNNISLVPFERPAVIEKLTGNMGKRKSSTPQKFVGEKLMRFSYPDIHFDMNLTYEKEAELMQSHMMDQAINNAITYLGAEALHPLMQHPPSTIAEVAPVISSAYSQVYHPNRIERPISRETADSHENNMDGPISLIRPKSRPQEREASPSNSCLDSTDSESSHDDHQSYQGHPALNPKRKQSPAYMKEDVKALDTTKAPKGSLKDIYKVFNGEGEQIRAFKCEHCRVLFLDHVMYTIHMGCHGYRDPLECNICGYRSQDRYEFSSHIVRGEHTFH
T3 sequence (Q96SW2 whole entry): as the sequence (Q96SW2 whole entry) above
T3 sequence (Q16531 whole entry partner): as the sequence (Q16531 whole entry partner) above
T5 sequence (Q13422 whole entry): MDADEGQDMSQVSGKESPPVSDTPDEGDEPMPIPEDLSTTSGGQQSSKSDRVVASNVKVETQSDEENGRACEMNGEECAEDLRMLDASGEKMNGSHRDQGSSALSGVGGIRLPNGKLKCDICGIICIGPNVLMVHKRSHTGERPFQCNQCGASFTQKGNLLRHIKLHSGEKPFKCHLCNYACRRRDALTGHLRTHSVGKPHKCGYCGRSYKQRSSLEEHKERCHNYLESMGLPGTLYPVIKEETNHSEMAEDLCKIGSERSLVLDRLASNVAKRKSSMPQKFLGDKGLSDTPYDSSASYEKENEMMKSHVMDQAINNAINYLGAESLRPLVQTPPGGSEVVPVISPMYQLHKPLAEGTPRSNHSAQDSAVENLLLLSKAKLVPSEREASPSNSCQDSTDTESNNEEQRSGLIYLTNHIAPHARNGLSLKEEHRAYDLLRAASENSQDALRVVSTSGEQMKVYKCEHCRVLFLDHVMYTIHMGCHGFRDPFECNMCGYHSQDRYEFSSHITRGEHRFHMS
T5 sequence (Q96SW2 whole entry): as the sequence (Q96SW2 whole entry) above
T5 sequence (Q16531 whole entry partner): as the sequence (Q16531 whole entry partner) above
T1 sequence (Q96SW2 whole entry): as the sequence (Q96SW2 whole entry) above
T6 sequence (Q9UKT9 whole entry): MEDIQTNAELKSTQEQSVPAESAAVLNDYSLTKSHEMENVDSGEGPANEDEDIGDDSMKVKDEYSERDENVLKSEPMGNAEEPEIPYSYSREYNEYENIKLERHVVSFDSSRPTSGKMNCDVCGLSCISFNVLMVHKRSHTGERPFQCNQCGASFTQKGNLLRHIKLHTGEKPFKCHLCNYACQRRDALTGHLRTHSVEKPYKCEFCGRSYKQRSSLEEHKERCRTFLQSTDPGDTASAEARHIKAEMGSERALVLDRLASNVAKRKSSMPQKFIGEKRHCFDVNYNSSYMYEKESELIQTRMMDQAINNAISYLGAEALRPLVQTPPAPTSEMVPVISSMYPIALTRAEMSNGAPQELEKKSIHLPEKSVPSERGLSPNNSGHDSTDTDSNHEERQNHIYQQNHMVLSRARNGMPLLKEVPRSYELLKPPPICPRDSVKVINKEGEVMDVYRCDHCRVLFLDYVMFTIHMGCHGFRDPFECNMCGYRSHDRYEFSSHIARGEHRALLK
T6 sequence (Q96SW2 whole entry): as the sequence (Q96SW2 whole entry) above
T6 sequence (Q16531 whole entry partner): as the sequence (Q16531 whole entry partner) above

Compound | IC50 (SR) | IC50 (CAL-62) | IC50 [1] | CK1a substrate protein remaining % (CK1α) | IC50 (NCI-H1975) | IC50 (MGC803) | IC50 (Jurkat) | IKZF2 substrate protein remaining % (IKZF2) | GSPT1 substrate protein remaining % (GSPT1) | IC50 [2] | IKZF 1 substrate protein remaining % (IKZF1) | IC50 (CCRF-CEM) | IC50 (Vcap) | IC50 (SW620) | IKZF3 substrate protein remaining % (IKZF3) | IC50 (MM.1R) | IC50 [3] | Weel substrate protein remaining % (WEE1)
O=C1CCC(N2Cc3cc(CN4CCN(c5ccc(F)cc5)CC4)ccc3C2=O)C(=O)N1 (stereo not drawn) [GT-04453, 3-(5-((4-(4-fluorophenyl)piperazin-1-yl)methyl)-1-oxoisoindolin-2-yl)piperidine-2,6-dione] | 500 to 1000 nM | 10 to 50 nM | 1 to 1.5 µM | A (0% ≤ substrate protein remaining % ≤ 80%) | 100 to 500 nM | 100 to 500 nM | 5 to 10 nM | A (0% ≤ substrate protein remaining % ≤ 80%) | A (0% ≤ substrate protein remaining % ≤ 80%) | 100 to 500 nM | A (0% ≤ substrate protein remaining % ≤ 80%) | 5 to 10 nM | 50 to 100 nM | 100 to 500 nM | A (0% ≤ substrate protein remaining % ≤ 80%) | 10 to 50 nM | 10 to 50 nM | A (0% ≤ substrate protein remaining % ≤ 80%)
O=C1CCC(N2Cc3cc(CN4CCN(c5ccccc5Cl)CC4)ccc3C2=O)C(=O)N1 (stereo not drawn) [GT-04454, 3-(5-((4-(2-chlorophenyl)piperazin-1-yl)methyl)-1-oxoisoindolin-2-yl)piperidine-2,6-dione] | 100 to 500 nM | 10 to 50 nM | 0.5 to 1 µM | A (0% ≤ substrate protein remaining % ≤ 80%) | 100 to 500 nM | 100 to 500 nM | 5 to 10 nM | A (0% ≤ substrate protein remaining % ≤ 80%) | A (0% ≤ substrate protein remaining % ≤ 80%) | 100 to 500 nM | A (0% ≤ substrate protein remaining % ≤ 80%) | 10 to 50 nM | 10 to 50 nM | 100 to 500 nM | A (0% ≤ substrate protein remaining % ≤ 80%) | 10 to 50 nM | 10 to 50 nM | A (0% ≤ substrate protein remaining % ≤ 80%)
O=C1CCC(N2Cc3cc(CN4CCN(c5ccc(Cl)cc5)CC4)ccc3C2=O)C(=O)N1 (stereo not drawn) [GT-04455, 3-(5-((4-(4-chlorophenyl)piperazin-1-yl)methyl)-1-oxoisoindolin-2-yl)piperidine-2,6-dione] | 100 to 500 nM | 5 to 10 nM | 0.5 to 1 µM | A (0% ≤ substrate protein remaining % ≤ 80%) | 50 to 100 nM | 50 to 100 nM | 1 to 5 nM | A (0% ≤ substrate protein remaining % ≤ 80%) | A (0% ≤ substrate protein remaining % ≤ 80%) | 50 to 100 nM | A (0% ≤ substrate protein remaining % ≤ 80%) | 1 to 5 nM | 10 to 50 nM | 10 to 50 nM | A (0% ≤ substrate protein remaining % ≤ 80%) | 5 to 10 nM | 1 to 5 nM | A (0% ≤ substrate protein remaining % ≤ 80%)
O=C1CCC(N2Cc3cc(CN4CCN(c5ccccc5Br)CC4)ccc3C2=O)C(=O)N1 (stereo not drawn) [GT-04456, 3-(5-((4-(2-bromophenyl)piperazin-1-yl)methyl)-1-oxoisoindolin-2-yl)piperidine-2,6-dione] | 500 to 1000 nM | 10 to 50 nM | 0.5 to 1 µM | A (0% ≤ substrate protein remaining % ≤ 80%) | 100 to 500 nM | 100 to 500 nM | 5 to 10 nM | A (0% ≤ substrate protein remaining % ≤ 80%) | A (0% ≤ substrate protein remaining % ≤ 80%) | 100 to 500 nM | A (0% ≤ substrate protein remaining % ≤ 80%) | 5 to 10 nM | 50 to 100 nM | 100 to 500 nM | A (0% ≤ substrate protein remaining % ≤ 80%) | 10 to 50 nM | 10 to 50 nM | A (0% ≤ substrate protein remaining % ≤ 80%)
Cc1cccc(N2CCN(Cc3ccc4c(c3)CN(C3CCC(=O)NC3=O)C4=O)CC2)c1 (stereo not drawn) [GT-04462, 3-(1-oxo-5-((4-(m-tolyl)piperazin-1-yl)methyl)isoindolin-2-yl)piperidine-2,6-dione] | 10 to 50 nM | 10 to 50 nM | 0.5 to 1 µM | A (0% ≤ substrate protein remaining % ≤ 80%) | 10 to 50 nM | 10 to 50 nM | 10 to 50 nM | A (0% ≤ substrate protein remaining % ≤ 80%) | A (0% ≤ substrate protein remaining % ≤ 80%) | 10 to 50 nM | A (0% ≤ substrate protein remaining % ≤ 80%) | 1 to 5 nM | 5 to 10 nM | 10 to 50 nM | A (0% ≤ substrate protein remaining % ≤ 80%) | 1 to 5 nM | 1 to 5 nM | A (0% ≤ substrate protein remaining % ≤ 80%)
Cc1ccc(N2CCN(Cc3ccc4c(c3)CN(C3CCC(=O)NC3=O)C4=O)CC2)cc1 (stereo not drawn) [GT-04463, 3-(1-oxo-5-((4-(p-tolyl)piperazin-1-yl)methyl)isoindolin-2-yl)piperidine-2,6-dione] | 500 to 1000 nM | 10 to 50 nM | 1 to 1.5 µM | A (0% ≤ substrate protein remaining % ≤ 80%) | 100 to 500 nM | 100 to 500 nM | 5 to 10 nM | A (0% ≤ substrate protein remaining % ≤ 80%) | A (0% ≤ substrate protein remaining % ≤ 80%) | 100 to 500 nM | A (0% ≤ substrate protein remaining % ≤ 80%) | 5 to 10 nM | 10 to 50 nM | 100 to 500 nM | A (0% ≤ substrate protein remaining % ≤ 80%) | 5 to 10 nM | 5 to 10 nM | A (0% ≤ substrate protein remaining % ≤ 80%)

Source: patent EP4745137A1 (Gluetacs Therapeutics (Shanghai) Co., Ltd., priority 2023, dated 2025)
